According to patent US20020146411A1, “Anticoagulant agents useful in treatment of thrombosis” (SmithKline Beecham Corporation, priority 1996, published 2002):
“Also recorded” adds a separate entry of the source.

Assays:
[1] = tested on: rat carotid artery thrombosis; experiment: Rat carotid artery thrombosis model (FeCl3 injury), Example 3; format: in vivo
Text: In order to evaluate the efficacy of anti-Factor IX antibodies in prevention of arterial thrombosis, the rat carotid artery thrombosis model as reported by Schumacher et al. in J. Cardio. Pharm. 22, 526-533 (1993) was adapted. This model consists of segmental injury to the carotid endothelium by oxygen radicals generated by FeCl3 solution applied on the surface of the carotid artery.
In brief, rats were anesthetized with pentobarbitone sodium, the jugular vein cannulated for intravenous injections and the left femoral artery cannulated for blood pressure and heart rate monitoring. The carotid artery was isolated by aseptic technique via a surgical incision in the neck and equipped with a magnetic flow probe for blood flow measurement. After a period of stabilization, baseline parameters were established for the following variables: carotid blood flow, arterial pressure, heart rate, activated partial thromboplastin time (aPTT) and prothrombin time (PT). Thereafter, a premeasured Whatman filter paper soaked in 50% FeCl3 solution was placed on the carotid artery for 15 minutes for complete injury of the underlying endothelial cells. After removal of the FeCl3 soaked paper, the experiment was followed to completion over 60 minutes. At the end of the experiment, the carotid thrombus was extracted from the carotid artery and weighed.
All agents were administered 15 minutes prior to the onset of carotid injury. The following treatments were examined and compared to the Factor IX mAb BC2.
1. Heparin: 15, 30, 60 or 120 U/kg bolus, followed by infusion of 0.5, 1, 2 or 4 U/kg/min, respectively over 60 minutes
2. Acetylsalicylic acid (ASA, aspirin): 5 mg/kg bolus
3. Anti-Factor IX mAb BC2: 1, 3 or 6 mg/kg bolus, followed by infusion 0.3, 1, or 2 ug/kg/min, respectively over 60 minutes
4. Heparin: 30U/kg bolus+lU/kg/min+ASA at 5 mg/kg
5. Anti-Factor IX mAb BC2: 1 mg/kg+0.3 ug/kg/min+ASA at 5 mg/kg

[2] = tested on: BC2 antibody; experiment: BiaCore binding of Factor IX/Factor VII constructs to immobilized BC2; conditions: for Degree of Binding to BC2: 200 nM construct, 25 mM MOPS pH 7.4, 0.15 M NaCl, 5 mM CaCl2
Procedure: A library of chimeric constructs composed of sequences of Factor IX spliced into the framework of the homologous protein Factor VII was constructed and used to map the epitope for the Factor IX BC2 mAb. See Cheung et al., Thromb. Res. 80, 419-427 (1995). Binding was measured using a BiaCore 2000 surface plasmon resonance device. The BC2 antibody was coupled directly to the chip using the NHS/EDC reaction. Binding was measured by 2 min of contact time at 20 uL/min with 200 nM of each of the given constructs in 25 mM MOPS, pH 7.4, 0.15 M NaCl, 5 mM CaCl2. Dissociation was monitored for 3 min using the same buffer with no protein. No binding was detected to the wild type construct in the presence of 50 mM EDTA.

Compound	Degree of Binding to BC2 [2]	further results
CC(=O)Oc1ccccc1C(=O)O [ASA, Acetylsalicylic acid, reference compound]		effect on carotid artery occlusion (FIG. 6) [1]: only a minor effect; effect on thrombus weight (FIG. 7) [1]: only a partial effect; effect on aPTT at 60 minutes (FIG. 4) ([1]; regimens of b146-b150, given 15 minutes before injury): did not significantly increase aPTT
IX K5A: Factor IX having a lysine to alanine substitution at residue 5	exhibit binding to BC2; also recorded: Binds	
VII gla (IX 3-11)/IX: residues 3-11 of Factor IX gla domain within the Factor VII gla domain	exhibit binding to BC2; also recorded: equivalent to wild type Factor IX; also recorded: Binds	
VII gla/IX: chimeric Factor VII/Factor IX construct	No Binding	
r-IX: recombinant wild type Factor IX	Binds	
wild type construct: wild type Factor IX construct used in BC2 epitope mapping		binding to BC2 in the presence of EDTA ([2]; 50 mM EDTA): No binding

Now from value to compound, other results behind:

Degree of Binding to BC2 [2]	Compound	further results
Binds	Plasma IXa: plasma Factor IXa, wild type Factor IX	
No Binding	Plasma VII: plasma Factor VII	
Very Low Binding	VII gla (IX 3-6)/IX: chimeric Factor VII/Factor IX construct	
Very Low Binding	VII gla (IX 9-11)/IX: chimeric Factor VII/Factor IX construct	
